From patent US20250221410A1, “SUBSTITUTED 2-C-AZINES AND SALTS THEREOF, AND USE THEREOF AS HERBICIDAL ACTIVE SUBSTANCES” (BAYER AKTIENGESELLSCHAFT, priority 2022, published 2025)

Experiments:
Format in all cases: in vivo
[1] = tested on: ALOMY: Alopecurus myosuroides; assay: Pre-emergence herbicide efficacy at 80 g/ha, ALOMY; details: scored visually after about 3 weeks
Excerpt: (§1) Seeds of monocotyledonous and dicotyledonous weed plants and crop plants were placed in plastic or organic planting pots and covered with soil. The compounds of the invention, formulated in the form of wettable powders (WP) or as emulsion concentrates (EC), were then applied to the surface of the covering soil as aqueous suspension or emulsion with addition of 0.5% additive at a water application rate equivalent to 600 l/ha. After the treatment, the pots were placed in a greenhouse and kept under good growth conditions for the test plants. After about 3 weeks, the efficacy of the preparations was scored visually in comparison with untreated controls as percentages. For example, 100% activity=the plants have died, 0% activity=like control plants. Tables D1 to D12 below show the effects of selected compounds of the general formula (I) according to Table 1 on various harmful plants and an application rate corresponding to 80 g/ha, which were obtained by the experimental procedure mentioned above.

[2] = tested on: DIGSA: Digitaria sanguinalis; assay: Pre-emergence herbicide efficacy at 80 g/ha, DIGSA; details: scored visually after about 3 weeks
How it was run: (§2)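 Visual scoring against untreated controls after about 3 weeks gave percent activity, where 0% means growth like controls and 100% means plants died. Test compounds, as wettable powders or emulsion concentrates with 0.5% additive, were applied to the covering soil of freshly sown pots at a water rate equivalent to 600 l/ha.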

[3] = tested on: ALOMY: Alopecurus myosuroides; assay: Post-emergence herbicidal efficacy at 1280 g/ha, ALOMY; details: rated visually after about 3 weeks vs untreated controls, 100% = plants have died, 0% = like control plants
How it was run: (§3)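 Greenhouse pot test in sandy loam. Plants at the one-leaf stage, 2–3 weeks after sowing, were sprayed post-emergence with WP or EC formulations in water containing 0.5% additive, at 600 L/ha. Activity was scored visually about 3 weeks later against untreated controls (100% = dead, 0% = as control).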

[4] = tested on: SETVI: Setaria viridis; assay: Post-emergence herbicidal efficacy at 1280 g/ha, SETVI; details: visual rating about 3 weeks after treatment vs untreated controls
How it was run: as §3

[5] = tested on: ECHCG: Echinochloa crus-galli; assay: Post-emergence herbicidal efficacy at 1280 g/ha, ECHCG; details: rated visually after about 3 weeks vs untreated controls, 100% = plants have died, 0% = like control plants
How it was run: as §3

[6] = tested on: SETVI: Setaria viridis; assay: Pre-emergence herbicide efficacy at 1280 g/ha, SETVI; details: visual scoring vs untreated controls
How it was run: (§4)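 Pre-em, sandy loam pots, seeds covered w/ soil. WP/EC formulation, aq. spray onto soil surface, 0.5% additive, 600 L/ha. Greenhouse ~3 wk; visual % vs untreated (0 = control, 100 = dead).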

[7] = tested on: VERPE: Veronica persica; assay: Post-emergence herbicidal efficacy at 1280 g/ha, VERPE; details: visual rating about 3 weeks after treatment vs untreated controls
How it was run: as §3

[8] = tested on: AMARE: Amaranthus retroflexus; assay: Pre-emergence herbicide efficacy at 80 g/ha, AMARE; details: scored visually after about 3 weeks
How it was run: as §2

[9] = tested on: VIOTR: Viola tricolor; assay: Pre-emergence herbicide efficacy at 80 g/ha, VIOTR; details: scored visually after about 3 weeks
Excerpt: as §1

[10] = tested on: ABUTH: Abutilon theophrasti; assay: Pre-emergence herbicide efficacy at 1280 g/ha, ABUTH; details: visual scoring after about 3 weeks vs untreated controls
How it was run: as §4

[11] = tested on: POAAN: Poa annua; assay: Pre-emergence herbicide efficacy at 1280 g/ha, POAAN; details: visual scoring after about 3 weeks vs untreated controls
How it was run: as §4

[12] = tested on: ABUTH: Abutilon theophrasti; assay: Pre-emergence herbicide efficacy at 80 g/ha, ABUTH; details: scored visually after about 3 weeks
How it was run: as §2

[13] = tested on: MATIN: Matricaria inodora; assay: Pre-emergence herbicide efficacy at 80 g/ha, MATIN; details: scored visually after about 3 weeks
How it was run: as §2

[14] = tested on: KCHSC: Kochia scoparia; assay: Pre-emergence herbicide efficacy at 80 g/ha, KCHSC; details: scored visually after about 3 weeks
Excerpt: as §1

[15] = tested on: LOLRI: Lolium rigidum; assay: Post-emergence herbicidal efficacy at 1280 g/ha, LOLRI; details: visual rating about 3 weeks after treatment vs untreated controls
Procedure: (§5) Seeds of mono- and dicotyledonous weed plants were placed in plastic pots in sandy loam soil (doubly sown with in each case one species of mono- or dicotyledonous weed plants per pot), covered with soil and cultivated in a greenhouse under controlled growth conditions. 2 to 3 weeks after sowing, the test plants were treated at the one-leaf stage. The compounds of the invention, formulated in the form of wettable powders (WP) or as emulsion concentrates (EC), were applied to the green parts of the plants as aqueous suspension or emulsion with addition of 0.5% additive at a water application rate equivalent to 600 litres per hectare. After the test plants had been kept in the greenhouse under optimum growth conditions for about 3 weeks, the activity of the preparations was rated visually in comparison to untreated controls. For example, 100% activity=the plants have died, 0% activity=like control plants. Tables A1 to A12 below show the effects of selected compounds of the general formula (I) according to Table 1 on various harmful plants and at an application rate corresponding to 1280 g/ha, which were obtained by the trial procedure specified above.

[16] = tested on: MATIN: Matricaria inodora; assay: Post-emergence herbicidal efficacy at 1280 g/ha, MATIN; details: visual rating about 3 weeks after treatment vs untreated controls
Procedure: as §5

[17] = tested on: ABUTH: Abutilon theophrasti; assay: Post-emergence herbicidal efficacy at 80 g/ha, ABUTH; details: rated visually after about 3 weeks vs untreated controls, 100% = plants have died, 0% = like control plants
Procedure: Seeds of monocotyledonous and dicotyledonous weeds and crop plants were placed in sandy loam in plastic or organic planting pots, covered with soil and cultivated in a greenhouse under controlled growth conditions. 2 to 3 weeks after sowing, the test plants were treated at the one-leaf stage. The compounds of the invention, formulated in the form of wettable powders (WP) or as emulsion concentrates (EC), were then sprayed onto the green parts of the plants as aqueous suspension or emulsion with addition of 0.5% additive at a water application rate of 600 l/ha (converted). After the test plants had been kept in the greenhouse under optimum growth conditions for about 3 weeks, the activity of the preparations was rated visually in comparison to untreated controls. For example, 100% activity=the plants have died, 0% activity=like control plants. Tables B1 to B10 below show the effects of selected compounds of the general formula (I) according to Table 1 on various harmful plants and an application rate corresponding to 80 g/ha, which were obtained by the experimental procedure mentioned above.

SMILES | Pre-emergence efficacy against ALOMY in % [1] [%] | Pre-emergence efficacy against DIGSA in % [2] [%] | Post-emergence efficacy at 1280 g/ha against ALOMY in % [3] [%] | Post-emergence efficacy against SETVI [4] [%] | Post-emergence efficacy at 1280 g/ha against ECHCG in % [5] [%] | Pre-emergence efficacy against SETVI in % [6] [%] | Post-emergence efficacy against VERPE [7] [%] | Pre-emergence efficacy against AMARE in % [8] [%] | Pre-emergence efficacy against VIOTR in % [9] [%] | Pre-emergence efficacy against ABUTH [10] [%] | Pre-emergence efficacy against POAAN [11] [%] | Pre-emergence efficacy against ABUTH in % [12] [%] | Pre-emergence efficacy against MATIN in % [13] [%] | Pre-emergence efficacy against KCHSC in % [14] [%] | Post-emergence efficacy against LOLRI [15] [%] | Post-emergence efficacy against MATIN [16] [%] | Post-emergence efficacy at 80 g/ha against ABUTH in % [17] [%]
Fc1cnc(Oc2cccc(Br)c2Cc2ncc(Cl)cn2)nc1 [Example 1-54] | 80 | 100 | 90 | 100 | 100 | 100 | 100 | 100 | 100 | 100 | 100 | 100 | 90 | 100 | – | – | –
Clc1cnc(Cc2c(Cl)cccc2Oc2ncc(Cl)cn2)nc1 [Example 1-56] | – | 100 | – | 90 | 90 | 100 | 90 | 100 | 100 | 100 | 100 | 100 | 100 | 90 | 90 | – | –
N#Cc1cccc(Oc2ncc(F)cn2)c1Cc1ncc(Cl)cn1 [Example 1-59] | 80 | 100 | – | 90 | 90 | 100 | 100 | 100 | 100 | 100 | 100 | 100 | 100 | 100 | – | 100 | –
FC(F)c1cc(-c2ccccc2Cc2ncc(Cl)cn2)on1 [Example 1-133] | – | 100 | 90 | 100 | 100 | 100 | 100 | 100 | 80 | 100 | 100 | 100 | 80 | 100 | 100 | – | 80
